Values after ≈ are worked out from the molar mass of the structure shown. Like-named read-outs stand apart in the source and are kept apart here.
Columns and labels:
Yersinia enterocolitica = assay: MIC by agar dilution (NCCLS M7-A4), 288 enteropathogenic isolates, gemifloxacin and 15 other antimicrobials; type: cell-based; settings: for MIC: Yersinia enterocolitica N= 22
Shigella spp. = assay: as above; type: cell-based; settings: for MIC: Shigella spp. N= 21
Method in brief: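 Agar dilution with ~10^4 cfu/spot inoculum; plates incubated aerobically at 35 °C for 24 h, except C. jejuni, held microaerophilically for 48 h. MIC taken as lowest antibiotic concentration with no visible growth.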

Salmonella spp. = assay: as above; type: cell-based; settings: for MIC: Salmonella
Aeromonas spp. = assay: as above; type: cell-based; settings: for MIC: Aeromonas spp. N= 16
Streptococcus pneumoniae = assay: MIC by two-fold serial agar dilution, Sensitivity Disk agar-N (Kitasato isolates); type: cell-based; settings: for MIC90 / MIC / MIC50: Streptococcus pneumoniae; for MIC90: read-out: MIC90; for MIC: read-out: MIC Range; for MIC50: read-out: MIC50
Haemophilus influenzae = assay: as above; type: cell-based; settings: Haemophilus influenzae (24)
Moraxella catarrhalis = assay: as above; type: cell-based; settings: Moraxella catarrhalis (22)
Hafnia alvei = assay: MIC by agar dilution (NCCLS M7-A4), 288 enteropathogenic isolates, gemifloxacin and 15 other antimicrobials; type: cell-based; settings: Hafnia alvei N= 32
Staphylococcus aureus = assay: microbe, parasite or virus in culture; type: cell-based
Campylobacter jejuni = assay: MIC by agar dilution (NCCLS M7-A4), 288 enteropathogenic isolates, gemifloxacin and 15 other antimicrobials; settings: Campylobacter jejuni
[1] = 24 h, read-out: MIC (mg/L) Range
[2] = 18 h, Ciprofloxacin-resistant (21), ciprofloxacin MIC ≥8 µg/ml
[3] = 18 h, Ciprofloxacin-resistant (21)
[4] = 18 h, Erythromycin-resistant (37)
[5] = 18 h, Penicillin-resistant (19)

In the case of CC1(C)S[C@@H]2[C@H](NC(=O)[C@H](N)c3ccc(O)cc3)C(=O)N2[C@H]1C(=O)O [Amoxycillin, amoxycillin], the MIC (Yersinia enterocolitica; [1]) is reported as 128 mg/L (≈ 350 µM), the “susceptibility of isolates” value (Yersinia enterocolitica; Yersinia enterocolitica) is reported as “non susceptible” and the MIC (Yersinia enterocolitica; read-out: MIC (mg/L) 50%) is reported as 128 mg/L (≈ 350 µM). The MIC (Yersinia enterocolitica; read-out: MIC (mg/L) 90%) was 128 mg/L (≈ 350 µM), the susceptible isolates (Shigella spp.; Shigella spp., breakpoints) was 43% and the MIC (Shigella spp.; read-out: MIC (mg/L) 50%) was 128 mg/L (≈ 350 µM). For the same compound, the MIC (Shigella spp.; read-out: MIC (mg/L) 90%) was > 128 mg/L, the susceptible isolates (Salmonella spp.; Salmonella spp., breakpoints) was 77% and the MIC (Salmonella spp.; read-out: MIC (mg/L) 50%, Salmonella spp. N= 106) was 1 mg/L (≈ 2.74 µM). The MIC (Salmonella spp.; read-out: MIC (mg/L) 90%, Salmonella spp. N= 106) was > 128 mg/L, the “susceptibility of isolates” value (Aeromonas spp.; Aeromonas spp.) was “non susceptible” and the MIC (Aeromonas spp.; read-out: MIC (mg/L) 50%) was > 128 mg/L. The MIC (Aeromonas spp.; read-out: MIC (mg/L) 90%) was > 128 mg/L, the “MIC Range” value (Streptococcus pneumoniae; Ciprofloxacin-susceptible (94)) was ≤0.008 to 8 µg/mL and the “MIC Range” value (Streptococcus pneumoniae; Minocycline-resistant (37)) was ≤0.008 to 8 µg/mL. The MIC90 (Streptococcus pneumoniae; [2]) was 0.5 µg/mL (≈ 1.37 µM), the MIC (Streptococcus pneumoniae; [3]) was 0.016 to 1 µg/mL (≈ 0.0438 to 2.74 µM) and the MIC (Streptococcus pneumoniae; [4]) was 0.016 to 8 µg/mL (≈ 0.0438 to 21.9 µM). It also gave an MIC (Streptococcus pneumoniae; [5]) of 0.25 to 8 µg/mL (≈ 0.684 to 21.9 µM), an MIC50 (Streptococcus pneumoniae; Ciprofloxacin-resistant (21)) of 0.016 µg/mL (≈ 0.0438 µM) and an MIC50 (Streptococcus pneumoniae; Ciprofloxacin-susceptible (94)) of 0.063 µg/mL (≈ 0.172 µM). The MIC90 (Streptococcus pneumoniae; Ciprofloxacin-susceptible (94)) was 0.5 µg/mL (≈ 1.37 µM), the MIC50 (Streptococcus pneumoniae; Erythromycin-resistant (37)) was 0.063 µg/mL (≈ 0.172 µM) and the MIC90 (Streptococcus pneumoniae; Erythromycin-resistant (37)) was 0.5 µg/mL (≈ 1.37 µM). For the same compound, the MIC50 (Streptococcus pneumoniae; Minocycline-resistant (37)) was 0.063 µg/mL (≈ 0.172 µM), the MIC90 (Streptococcus pneumoniae; Minocycline-resistant (37)) was 0.5 µg/mL (≈ 1.37 µM) and the MIC50 (Streptococcus pneumoniae; Penicillin-resistant (19)) was 0.5 µg/mL (≈ 1.37 µM). It also gave an MIC90 (Streptococcus pneumoniae; Penicillin-resistant (19)) of 8 µg/mL (≈ 21.9 µM), an MIC50 (Haemophilus influenzae) of 1 µg/mL (≈ 2.74 µM) and an MIC90 (Haemophilus influenzae) of 64 µg/mL (≈ 175 µM). For the same compound, the MIC50 (Moraxella catarrhalis) was 8 µg/mL (≈ 21.9 µM), the MIC90 (Moraxella catarrhalis) was 16 µg/mL (≈ 43.8 µM) and the “MIC Range” value (Moraxella catarrhalis) was 1 to 16 µg/mL. It also gave an MIC (Hafnia alvei; [1]) of 16 to 128 mg/L (≈ 43.8 to 350 µM), an MIC (Hafnia alvei; read-out: MIC (mg/L) 50%) of 64 mg/L (≈ 175 µM) and an MIC (Hafnia alvei; read-out: MIC (mg/L) 90%) of 64 mg/L (≈ 175 µM). It also gave an MIC90 (Staphylococcus aureus) of 128 µg/mL (≈ 350 µM), an MIC90 (Staphylococcus aureus; Staphylococcus aureus) of 64 µg/mL (≈ 175 µM) and an MIC (Campylobacter jejuni; read-out: MIC (mg/L) 50%) of 4 mg/L (≈ 10.9 µM). It also gave an MIC (Campylobacter jejuni; read-out: MIC (mg/L) 90%) of 32 mg/L (≈ 87.6 µM).

CO/N=C(\C(=O)N[C@@H]1C(=O)N2C(C(=O)O)=C(/C=C\c3scnc3C)CS[C@H]12)c1csc(N)n1 [Cefditoren, cefditoren] was tested, and the MIC90 (Streptococcus pneumoniae; [2]) was 0.25 µg/mL (≈ 0.493 µM), the MIC (Streptococcus pneumoniae; [3]) was 0.008 to 1 µg/mL (≈ 0.0158 to 1.97 µM) and the MIC (Streptococcus pneumoniae; 18 h, Ciprofloxacin-susceptible (94)) was 0.008 to 2 µg/mL (≈ 0.0158 to 3.95 µM). It also gave an MIC (Streptococcus pneumoniae; [4]) of 0.008 to 2 µg/mL (≈ 0.0158 to 3.95 µM), an MIC (Streptococcus pneumoniae; 18 h, Minocycline-resistant (37)) of 0.008 to 2 µg/mL (≈ 0.0158 to 3.95 µM) and an MIC (Streptococcus pneumoniae; [5]) of 0.25 to 2 µg/mL (≈ 0.493 to 3.95 µM). For the same compound, the MIC50 (Streptococcus pneumoniae; Ciprofloxacin-resistant (21)) was ≤ 0.008 µg/mL, the MIC50 (Streptococcus pneumoniae; Ciprofloxacin-susceptible (94)) was 0.063 µg/mL (≈ 0.124 µM) and the MIC90 (Streptococcus pneumoniae; Ciprofloxacin-susceptible (94)) was 0.25 µg/mL (≈ 0.493 µM). For the same compound, the MIC50 (Streptococcus pneumoniae; Erythromycin-resistant (37)) was 0.063 µg/mL (≈ 0.124 µM), the MIC90 (Streptococcus pneumoniae; Erythromycin-resistant (37)) was 0.25 µg/mL (≈ 0.493 µM) and the MIC50 (Streptococcus pneumoniae; Minocycline-resistant (37)) was 0.063 µg/mL (≈ 0.124 µM). It also gave an MIC90 (Streptococcus pneumoniae; Minocycline-resistant (37)) of 0.25 µg/mL (≈ 0.493 µM), an MIC50 (Streptococcus pneumoniae; Penicillin-resistant (19)) of 0.25 µg/mL (≈ 0.493 µM) and an MIC90 (Streptococcus pneumoniae; Penicillin-resistant (19)) of 2 µg/mL (≈ 3.95 µM). The MIC50 (Haemophilus influenzae) was 0.031 µg/mL (≈ 0.0612 µM), the MIC90 (Haemophilus influenzae) was 0.031 µg/mL (≈ 0.0612 µM) and the “MIC Range” value (Haemophilus influenzae) was 0.016 to 0.5 µg/mL. The MIC50 (Moraxella catarrhalis) was 0.5 µg/mL (≈ 0.987 µM), the MIC90 (Moraxella catarrhalis) was 1 µg/mL (≈ 1.97 µM) and the “MIC Range” value (Moraxella catarrhalis) was 0.063 to 1 µg/mL. For the same compound, the “MIC Range” value (Staphylococcus aureus; Methicillin-resistant (38)) was 32 to 128 µg/mL, the “MIC Range” value (Staphylococcus aureus; Methicillin-susceptible (9)) was 0.5 to 1 µg/mL and the MIC50 (Staphylococcus aureus; Staphylococcus aureus, Methicillin-resistant (38)) was 128 µg/mL (≈ 253 µM). For the same compound, the MIC90 (Staphylococcus aureus; Staphylococcus aureus, Methicillin-resistant (38), read-out: MIC90) was 128 µg/mL (≈ 253 µM), the MIC50 (Staphylococcus aureus; Staphylococcus aureus, Methicillin-susceptible (9)) was 1 µg/mL (≈ 1.97 µM) and the MIC90 (Staphylococcus aureus; Staphylococcus aureus, Methicillin-susceptible (9), read-out: MIC90) was 1 µg/mL (≈ 1.97 µM).

Source: patent publication EP1561465A2, “Methods of use of fluoroquinolone compounds against bacteria” (LG Life Sciences, Ltd., priority 1999, dated 2001)
